Experimental data from PubChem BioAssay AID1963860 (Molecular Pharmacology Branch, DTP, NCI, 2024).

Test system: CN0375-F725-PDC KRAS spheroid viability
Assay: Anticancer human tumor CN0375-F725-PDC patient-derived colon carcinoma cell line growth inhibition [KRAS2]
Details: spheroids with HUVEC and MSC; for viability, T/C: stronger effect = lower value
Method in brief: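 KRAS-mutant tumor cells were grown as spheroids with HUVEC endothelial cells and human MSCs as stroma. Targeted agents were tested alone and with KRAS pathway inhibitors. Doses started at or near clinical Cmax, or 10 microM, descending half-log.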

[1] = curve of first compound, second compound 0.1 µM
[2] = curve of first compound, second compound 0.316 µM
[3] = curve of first compound, second compound 1 µM
[4] = curve of first compound, second compound 3.16 µM
[5] = curve of first compound, second compound 10 µM
[6] = second compound 0.1 µM, first compound 0.0316 µM
[7] = second compound 0.1 µM, first compound 0.1 µM
[8] = second compound 0.1 µM, first compound 0.316 µM
[9] = second compound 0.1 µM, first compound 1 µM
[10] = second compound 0.1 µM, first compound 3.16 µM
[11] = second compound 0.1 µM, first compound 10 µM
[12] = second compound 0.316 µM, first compound 0.0316 µM
[13] = second compound 0.316 µM, first compound 0.1 µM
[14] = second compound 0.316 µM, first compound 0.316 µM
[15] = second compound 0.316 µM, first compound 1 µM
[16] = second compound 0.316 µM, first compound 3.16 µM
[17] = second compound 0.316 µM, first compound 10 µM
[18] = second compound 1 µM, first compound 0.0316 µM
[19] = second compound 1 µM, first compound 0.1 µM
[20] = second compound 1 µM, first compound 0.316 µM
[21] = second compound 1 µM, first compound 1 µM
[22] = second compound 1 µM, first compound 3.16 µM
[23] = second compound 1 µM, first compound 10 µM
[24] = second compound 3.16 µM, first compound 0.0316 µM
[25] = second compound 3.16 µM, first compound 0.1 µM
[26] = second compound 3.16 µM, first compound 0.316 µM
[27] = second compound 3.16 µM, first compound 1 µM
[28] = second compound 3.16 µM, first compound 3.16 µM
[29] = second compound 3.16 µM, first compound 10 µM
[30] = second compound 10 µM, first compound 0.0316 µM
[31] = second compound 10 µM, first compound 0.1 µM
[32] = second compound 10 µM, first compound 0.316 µM
[33] = second compound 10 µM, first compound 1 µM
[34] = second compound 10 µM, first compound 3.16 µM
[35] = second compound 10 µM, first compound 10 µM
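Note: spheroids exposed to agents for 7 days.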

SMILES: CCNC(=O)CC1N=C(c2ccc(Cl)cc2)c2cc(OC)ccc2-n2c(C)nnc21 (centres undefined) + C=CC(=O)N1CCN(c2nc(=O)n(-c3c(C)ccnc3C(C)C)c3nc(-c4c(O)cccc4F)c(F)cc23)C(C)C1
- IC50 [1]: > 10 µM
- IC50 [2]: > 10 µM
- IC50 [3]: > 10 µM
- IC50 [4]: > 10 µM
- IC50 [5]: > 10 µM
- viability, T/C [6]: 100%
- viability, T/C [7]: 95.8%
- viability, T/C [8]: 88.1%
- viability, T/C [9]: 86%
- viability, T/C [10]: 74.7%
- viability, T/C [11]: 57.4%
- viability, T/C [12]: 99.9%
- viability, T/C [13]: 99.5%
- viability, T/C [14]: 84.5%
- viability, T/C [15]: 82%
- viability, T/C [16]: 71.1%
- viability, T/C [17]: 58%
- viability, T/C [18]: 104%
- viability, T/C [19]: 104%
- viability, T/C [20]: 87.3%
- viability, T/C [21]: 86.8%
- viability, T/C [22]: 75.5%
- viability, T/C [23]: 64.7%
- viability, T/C [24]: 104%
- viability, T/C [25]: 94.9%
- viability, T/C [26]: 88.4%
- viability, T/C [27]: 85.1%
- viability, T/C [28]: 67.9%
- viability, T/C [29]: 59%
- viability, T/C [30]: 102%
- viability, T/C [31]: 99%
- viability, T/C [32]: 84.6%
- viability, T/C [33]: 71.6%
- viability, T/C [34]: 73.9%
- viability, T/C [35]: 60.8%

SMILES: CC(C)n1nc(-c2ccc3oc(N)nc3c2)c2c(N)ncnc21 + C=CC(=O)N1CCN(c2nc(=O)n(-c3c(C)ccnc3C(C)C)c3nc(-c4c(O)cccc4F)c(F)cc23)C(C)C1
- IC50 [1]: 0.0815 µM
- IC50 [2]: 0.0667 µM
- IC50 [3]: 0.0585 µM
- IC50 [4]: 0.0526 µM
- IC50 [5]: 0.0396 µM
- viability, T/C (second compound 0.1 µM, first compound 0.000316 µM): 95.6%
- viability, T/C (second compound 0.1 µM, first compound 0.001 µM): 90%
- viability, T/C (second compound 0.1 µM, first compound 0.00316 µM): 75.3%
- viability, T/C (second compound 0.1 µM, first compound 0.01 µM): 67.4%
- viability, T/C [6]: 58.6%
- viability, T/C [7]: 47.9%
- viability, T/C (second compound 0.316 µM, first compound 0.000316 µM): 94%
- viability, T/C (second compound 0.316 µM, first compound 0.001 µM): 90.9%
- viability, T/C (second compound 0.316 µM, first compound 0.00316 µM): 72%
- viability, T/C (second compound 0.316 µM, first compound 0.01 µM): 68.8%
- viability, T/C [12]: 60.6%
- viability, T/C [13]: 44.5%
- viability, T/C (second compound 1 µM, first compound 0.000316 µM): 90.7%
- viability, T/C (second compound 1 µM, first compound 0.001 µM): 93.2%
- viability, T/C (second compound 1 µM, first compound 0.00316 µM): 75.1%
- viability, T/C (second compound 1 µM, first compound 0.01 µM): 64.8%
- viability, T/C [18]: 56.5%
- viability, T/C [19]: 45.3%
- viability, T/C (second compound 3.16 µM, first compound 0.000316 µM): 93.9%
- viability, T/C (second compound 3.16 µM, first compound 0.001 µM): 91.7%
- viability, T/C (second compound 3.16 µM, first compound 0.00316 µM): 77.2%
- viability, T/C (second compound 3.16 µM, first compound 0.01 µM): 64.5%
- viability, T/C [24]: 55.5%
- viability, T/C [25]: 44.6%
- viability, T/C (second compound 10 µM, first compound 0.000316 µM): 87.4%
- viability, T/C (second compound 10 µM, first compound 0.001 µM): 77.9%
- viability, T/C (second compound 10 µM, first compound 0.00316 µM): 68.9%
- viability, T/C (second compound 10 µM, first compound 0.01 µM): 58.2%
- viability, T/C [30]: 51.3%
- viability, T/C [31]: 45.2%

SMILES: CC(=O)OC12COC1CC(O)C1(C)C(=O)C(O)C3=C(C)C(OC(=O)C(O)C(NC(=O)OC(C)(C)C)c4ccccc4)CC(O)(C(OC(=O)c4ccccc4)C21)C3(C)C (centres undefined)
- viability, T/C (compound 0.01 µM): 101% [middle of 5 runs]
- viability, T/C (compound 0.0316 µM): 97.7% [middle of 5 runs]
- viability, T/C (compound 0.1 µM): 89.3% [middle of 5 runs]
- viability, T/C (compound 0.316 µM): 89% [middle of 5 runs]
- viability, T/C (compound 1 µM): 83.2% [middle of 5 runs]
- viability, T/C (compound 3.16 µM): 80.8% [middle of 5 runs]
- IC50 (curve of compound): > 3.16 µM

SMILES: O=C(c1cc(Cc2n[nH]c(=O)c3ccccc23)ccc1F)N1CCN(C(=O)C2CC2)CC1 + COc1cc2nc(C)nc(NC(C)c3cc(N)cc(C(F)(F)F)c3)c2cc1OC1CCOC1
- IC50 [1]: > 10 µM
- IC50 [2]: > 10 µM
- IC50 [3]: > 10 µM
- IC50 [4]: > 10 µM
- IC50 [5]: > 10 µM
- viability, T/C [6]: 105%
- viability, T/C [7]: 106%
- viability, T/C [8]: 98.4%
- viability, T/C [9]: 107%
- viability, T/C [10]: 98.2%
- viability, T/C [11]: 106%
- viability, T/C [12]: 102%
- viability, T/C [13]: 103%
- viability, T/C [14]: 97.8%
- viability, T/C [15]: 98.8%
- viability, T/C [16]: 98.8%
- viability, T/C [17]: 93.2%
- viability, T/C [18]: 111%
- viability, T/C [19]: 107%
- viability, T/C [20]: 99%
- viability, T/C [21]: 97.8%
- viability, T/C [22]: 107%
- viability, T/C [23]: 93.5%
- viability, T/C [24]: 92.8%
- viability, T/C [25]: 95.4%
- viability, T/C [26]: 85.8%
- viability, T/C [27]: 84.6%
- viability, T/C [28]: 84.9%
- viability, T/C [29]: 71.5%
- viability, T/C [30]: 82.2%
- viability, T/C [31]: 81.4%
- viability, T/C [32]: 79.3%
- viability, T/C [33]: 69.9%
- viability, T/C [34]: 104%
- viability, T/C [35]: 98%

SMILES: CC(C)n1nc(-c2ccc3oc(N)nc3c2)c2c(N)ncnc21
- viability, T/C (compound 0.000316 µM): 97.5% [middle of 5 runs]
- viability, T/C (compound 0.001 µM): 93.1% [middle of 5 runs]
- viability, T/C (compound 0.00316 µM): 79% [middle of 5 runs]
- viability, T/C (compound 0.01 µM): 70.7% [middle of 5 runs]
- viability, T/C (compound 0.0316 µM): 55.5% [middle of 5 runs]
- viability, T/C (compound 0.1 µM): 45.2% [middle of 5 runs]
- IC50 (curve of compound): 64.7 nM [middle of 5 runs]
